Values of other authors as cited in patent US12521484B2, “Irrigation system and methods of use” (Osteal Therapeutics, Inc., priority 2023, dated 2026).

Legend:
[1] = tested on: multiple common PJI organisms
[2] = instillation of 50,000-100,000 μg/mL once or twice daily into the joint space; multiple patients

CN[C@H](CC(C)C)C(=O)N[C@H]1C(=O)N[C@@H](CC(N)=O)C(=O)N[C@H]2C(=O)N[C@H]3C(=O)N[C@H](C(=O)N[C@H](C(=O)O)c4cc(O)cc(O)c4-c4cc3ccc4O)[C@H](O)c3ccc(c(Cl)c3)Oc3cc2cc(c3O[C@@H]2O[C@H](CO)[C@@H](O)[C@H](O)[C@H]2O[C@H]2C[C@](C)(N)[C@H](O)[C@H](C)O2)Oc2ccc(cc2Cl)[C@H]1O [vancomycin]
minimum biofilm eradication concentration (MBEC) [1]: greater than 4,000 μg/mL | serum concentrations [2]: exceeding safe limits
